The values that follow come from patent US7101878B1 (Agouron Pharmaceuticals, Inc., priority 1998, dated 2006).

One assay deals with T1, mouse GnRH receptor (Mus musculus, UniProt Q01776).
T1 construct: expressed in transfected cells; host or cells: 293 cells
T1 sequence (Q01776 1-327): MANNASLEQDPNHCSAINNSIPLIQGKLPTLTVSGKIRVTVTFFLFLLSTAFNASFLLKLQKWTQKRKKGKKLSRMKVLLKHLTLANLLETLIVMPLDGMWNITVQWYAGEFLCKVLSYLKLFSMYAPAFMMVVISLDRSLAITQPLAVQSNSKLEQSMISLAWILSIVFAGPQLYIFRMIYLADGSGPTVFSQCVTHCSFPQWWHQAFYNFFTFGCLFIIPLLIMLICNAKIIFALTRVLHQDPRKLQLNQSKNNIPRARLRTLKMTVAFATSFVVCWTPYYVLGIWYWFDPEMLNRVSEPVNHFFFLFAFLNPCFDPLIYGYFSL
As to the kind of experiment: Radioligand binding, 125I-GnRH-A, 293 cells expressing mouse GnRH receptors. The settings on record: 1 h, substrate remaining; 10 uM compound; closer to zero = closer to 100% inhibition; read-out: S%R 10 uM mGnRHR. In a few lines: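 Bound label captured on 0.1% polyethyleneimine-treated GF/C filters, washed three times with PBS, counted. IC50 derived; identical set-up for every species.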
With `COc1cc(CCNC(=O)c2ccc(Cc3cc4c(cc3C)C(C)(C)CCC4(C)C)o2)cc(OC)c1O` [Compound 506], the remaining activity at 10 µM is 3%. For `Cc1cc2c(cc1Cc1ccc(C(=O)NCCc3ccccn3)o1)C(C)(C)CCC2(C)C` [Compound 507], the remaining activity at 10 µM was -4%. Take `COc1ccc(OC)c(CCNC(=O)c2ccc(Cc3cc4c(cc3C)C(C)(C)CCC4(C)C)o2)c1` [Compound 508]: the remaining activity at 10 µM came to 7%.

In the case of `Cc1cc2c(cc1Cc1ccc(C(=O)NCCc3c[nH]c4ccc(Cl)cc34)o1)C(C)(C)CCC2(C)C` [Compound 509], the remaining activity at 10 µM came to 16%. With `Cc1cc2c(cc1Cc1ccc(C(=O)NCC(F)(F)F)o1)C(C)(C)CCC2(C)C` [Compound 510], the remaining activity at 10 µM stood at 23%. Take `Cc1cc2c(cc1Cc1ccc(C(=O)NCc3cccc(NC(=O)N(Cc4ccccc4)c4ccccc4)c3)o1)C(C)(C)CCC2(C)C` [Compound 511]: the remaining activity at 10 µM is 47%.

For the compound `Cc1cc2c(cc1Cc1ccc(C(=O)NCCc3ccccc3Oc3ccccc3)o1)C(C)(C)CCC2(C)C` [Compound 512], the remaining activity at 10 µM was 51%.

Regarding `Cc1cc2c(cc1Cc1ccc(C(=O)NCCc3c[nH]cn3)o1)C(C)(C)CCC2(C)C` [Compound 513], the remaining activity at 10 µM was determined as 9%. As for `Cc1cc2c(cc1Cc1ccc(C(=O)NCCNc3nccc(NCC4CCCO4)n3)o1)C(C)(C)CCC2(C)C` (stereo not drawn) [Compound 514], the remaining activity at 10 µM was 2%.

As to `Cc1cc2c(cc1Cc1ccc(C(=O)NCCN3CCCC3)o1)C(C)(C)CCC2(C)C` [Compound 515], the remaining activity at 10 µM is 11%. Consider `Cc1cc2c(cc1Cc1ccc(C(=O)NCc3ccccc3C(F)(F)F)o1)C(C)(C)CCC2(C)C` [Compound 516], for which the remaining activity at 10 µM was 21%. Take `Cc1cc2c(cc1Cc1ccc(C(=O)Nc3nc(N(C)C)nc4nc[nH]c34)o1)C(C)(C)CCC2(C)C` [Compound 517]: the remaining activity at 10 µM came to 34%. For the compound `Cc1cc2c(cc1Cc1ccc(C(=O)NCc3cccc4c3OC3C=CC=CC43)o1)C(C)(C)CCC2(C)C` (stereo not drawn) [Compound 518], the remaining activity at 10 µM turned out to be 56%. For the compound `Cc1cc2c(cc1Cc1ccc(C(=O)NCc3ccc(F)c(F)c3)o1)C(C)(C)CCC2(C)C` [Compound 519], the remaining activity at 10 µM worked out at 0%. The same measure, in the same setting: the same measure for `Cc1cc2c(cc1Cc1ccc(C(=O)NCCN3CCNC3=O)o1)C(C)(C)CCC2(C)C` [Compound 520]: -3%; for `Cc1cc2c(cc1Cc1ccc(C(=O)NCc3ccc(S(N)(=O)=O)cc3)o1)C(C)(C)CCC2(C)C` [Compound 521]: 51%.

For `Cc1cc2c(cc1Cc1ccc(C(=O)NCC3CCN(C(N)N)CC3)o1)C(C)(C)CCC2(C)C` [Compound 522], the remaining activity at 10 µM was found to be 9%. Same read-out and setting: to `Cc1cc2c(cc1Cc1ccc(C(=O)NCCN3CCOCC3)o1)C(C)(C)CCC2(C)C` [Compound 523] belongs -4%.

`Cc1cc2c(cc1Cc1ccc(C(=O)NCCc3ccc(Cl)cc3Cl)o1)C(C)(C)CCC2(C)C` [Compound 524]: the remaining activity at 10 µM came out at 35%. Still for that read-out and setting: the same measure for `Cc1cnc(CNC(=O)c2ccc(Cc3cc4c(cc3C)C(C)(C)CCC4(C)C)o2)cn1` [Compound 525]: -9%; for `Cc1cc2c(cc1Cc1ccc(C(=O)NCCc3cccc(C(F)(F)F)c3)o1)C(C)(C)CCC2(C)C` [Compound 526]: 9%. On the same count and under the same terms, to `Cc1cc2c(cc1Cc1ccc(C(=O)NCC3Nc4ccccc4N3)o1)C(C)(C)CCC2(C)C` [Compound 529] belongs -3%; to `Cc1cc2c(cc1Cc1ccc(C(=O)NCC3CCN(c4ccnc(Cl)n4)CC3)o1)C(C)(C)CCC2(C)C` [Compound 530], -4%; to `Cc1cc2c(cc1Cc1ccc(C(=O)NCCCO)o1)C(C)(C)CCC2(C)C` [Compound 531], 4%. Regarding `CCN(CC)CCN(C)C(=O)c1ccc(Cc2cc3c(cc2C)C(C)(C)CCC3(C)C)o1` [Compound 532], the remaining activity at 10 µM was found to be 12%. Still for that read-out and setting: to `Cc1cc2c(cc1Cc1ccc(C(=O)NC(C)(C)C)o1)C(C)(C)CCC2(C)C` [Compound 533] belongs 29%; to `Cc1cc2c(cc1Cc1ccc(C(=O)N(CCN3CCOCC3)Cc3ccccc3)o1)C(C)(C)CCC2(C)C` [Compound 534], 9%; to `Cc1cc2c(cc1Cc1ccc(C(=O)N(C)CCC=C3c4ccccc4CCc4ccccc43)o1)C(C)(C)CCC2(C)C` [Compound 535], 43%. Same read-out and setting: to `CCOC(=O)CN(Cc1ccccc1)C(=O)c1ccc(Cc2cc3c(cc2C)C(C)(C)CCC3(C)C)o1` [Compound 536] belongs 38%; to `Cc1cc2c(cc1Cc1ccc(C(=O)N3CCN(CCO)CC3)o1)C(C)(C)CCC2(C)C` [Compound 537], 32%; to `C=CCN(CC=C)C(=O)c1ccc(Cc2cc3c(cc2C)C(C)(C)CCC3(C)C)o1` [Compound 538], 17%.

As for `CCN(CCO)C(=O)c1ccc(Cc2cc3c(cc2C)C(C)(C)CCC3(C)C)o1` [Compound 539], the remaining activity at 10 µM turned out to be 19%. `Cc1cc2c(cc1Cc1ccc(C(=O)N(CCN3CCCC3)Cc3ccccc3)o1)C(C)(C)CCC2(C)C` [Compound 540]: the remaining activity at 10 µM came out at 0%. On the same count and under the same terms, to `Cc1cc2c(cc1Cc1ccc(C(=O)N(CCC#N)Cc3cccnc3)o1)C(C)(C)CCC2(C)C` [Compound 541] belongs 9%; to `Cc1cc2c(cc1Cc1ccc(C(=O)N3CCC(C(=O)c4ccccc4)CC3)o1)C(C)(C)CCC2(C)C` [Compound 542], 42%. On the same count and under the same terms, to `Cc1cc2c(cc1Cc1ccc(C(=O)N3CC=CCC3)o1)C(C)(C)CCC2(C)C` [Compound 543] belongs 31%; to `CC(=O)N(C)C1CCN(C(=O)c2ccc(Cc3cc4c(cc3C)C(C)(C)CCC4(C)C)o2)C1` (stereo not drawn) [Compound 544], 27%; to `Cc1cc2c(cc1Cc1ccc(C(=O)NCCc3ccccc3)o1)C(C)(C)CCC2(C)C` [Compound 545], 28%. Turning to `Cc1cc2c(cc1Cc1ccc(C(=O)NC(C)C3CCCCC3)o1)C(C)(C)CCC2(C)C` (stereo not drawn) [Compound 546], the remaining activity at 10 µM is 29%. For `Cc1cc2c(cc1Cc1ccc(C(=O)N(Cc3ccc(C(C)C)cc3)Cc3cccnc3)o1)C(C)(C)CCC2(C)C` [Compound 547], the remaining activity at 10 µM was found to be 24%. Still for that read-out and setting: to `Cc1cc2c(cc1Cc1ccc(C(=O)N(C)C3CCN(C)CC3)o1)C(C)(C)CCC2(C)C` [Compound 548] belongs 12%; to `Cc1cc2c(cc1Cc1ccc(C(=O)N3CCC[C@H]3CNc3ccccc3)o1)C(C)(C)CCC2(C)C` [Compound 549], 48%; to `Cc1cc2c(cc1Cc1ccc(C(=O)NC3(CO)CCCC3)o1)C(C)(C)CCC2(C)C` [Compound 550], 3%.

For the compound `Cc1cc2c(cc1Cc1ccc(C(=O)N(Cc3cccnc3)Cc3cccc(C(F)(F)F)c3)o1)C(C)(C)CCC2(C)C` [Compound 551], the remaining activity at 10 µM was found to be 21%. As to `Cc1cc2c(cc1Cc1ccc(C(=O)NCCn3c([N+](=O)[O-])cnc3C)o1)C(C)(C)CCC2(C)C` [Compound 552], the remaining activity at 10 µM is 58%. Consider `COc1cccc(N2CCN(C(=O)c3ccc(Cc4cc5c(cc4C)C(C)(C)CCC5(C)C)o3)CC2)c1` [Compound 553], for which the remaining activity at 10 µM came out at 34%. With `COc1ccccc1N1CCN(C(=O)c2ccc(Cc3cc4c(cc3C)C(C)(C)CCC4(C)C)o2)CC1` [Compound 554], the remaining activity at 10 µM is 27%. On to `Cc1cc2c(cc1Cc1ccc(C(=O)N3CCN(CC(=O)N4CCCC4)CC3)o1)C(C)(C)CCC2(C)C` [Compound 555], for which the remaining activity at 10 µM turned out to be 21%.

In the case of `Cc1cc2c(cc1Cc1ccc(C(=O)NCC(C)O)o1)C(C)(C)CCC2(C)C` (stereo not drawn) [Compound 556], the remaining activity at 10 µM stood at 10%. As for `COCC(C)NC(=O)c1ccc(Cc2cc3c(cc2C)C(C)(C)CCC3(C)C)o1` (stereo not drawn) [Compound 557], the remaining activity at 10 µM is 10%. With `Cc1cc2c(cc1Cc1ccc(C(=O)NC(CO)CC3CCCCC3)o1)C(C)(C)CCC2(C)C` (stereo not drawn) [Compound 558], the remaining activity at 10 µM amounted to 24%. Same read-out and setting: the same measure for `Cc1cc2c(cc1Cc1ccc(C(=O)N(CC#N)Cc3ccccc3)o1)C(C)(C)CCC2(C)C` [Compound 559]: 26%; for `Cc1cc2c(cc1Cc1ccc(C(=O)NCCCOC(C)C)o1)C(C)(C)CCC2(C)C` [Compound 560]: 7%; for `Cc1cc2c(cc1Cc1ccc(C(=O)NCCSCCO)o1)C(C)(C)CCC2(C)C` [Compound 561]: 0%. `Cc1cc2c(cc1Cc1ccc(C(=O)N3CCc4ccccc4C3)o1)C(C)(C)CCC2(C)C` [Compound 562]: the remaining activity at 10 µM worked out at 30%. Same read-out and setting: to `Cc1cc2c(cc1Cc1ccc(C(=O)N3CCCCCCC3)o1)C(C)(C)CCC2(C)C` [Compound 563] belongs 13%. Turning to `Cc1cc2c(cc1Cc1ccc(C(=O)NC(C)(CO)CO)o1)C(C)(C)CCC2(C)C` [Compound 564], the remaining activity at 10 µM is 45%. As to `Cc1ccc(N2CCN(C(=O)c3ccc(Cc4cc5c(cc4C)C(C)(C)CCC5(C)C)o3)CC2)c(C)c1` [Compound 565], the remaining activity at 10 µM was 48%. Still for that read-out and setting: to `Cc1cc2c(cc1Cc1ccc(C(=O)NC[C@@H]3CCCC[C@H]3O)o1)C(C)(C)CCC2(C)C` [Compound 566] belongs 3%.

Still in this assay, the particulars now being: substrate remaining; 10 uM compound; closer to zero = closer to 100% inhibition.
Consider `Cc1cc2c(cc1Cc1ccc(C(=O)NCCc3c[nH]cn3)o1)C(C)(C)CCC2(C)C` [Compound 527], for which the “S%R 10 uM mGnRHR” value was determined as 10%.
